Publication PMC10605077, “In Vitro and In Silico Antiviral Activity of Di-Halogenated Compounds Derived from L-Tyrosine against Human Immunodeficiency Virus 1 (HIV-1)” (Current Issues in Molecular Biology, 2023)
pIC50: −log10 of the molar value. Entries after “also recorded” stand apart in the source; their conditions may differ.

How the values were obtained:
HIV-1 BaL [1] = assay: Anti-HIV activity in PBMC, p24 ELISA of supernatant; assay type: cell-based; conditions: Human immunodeficiency virus 1, BAL, PBMC, AZT (10 µM); read-out: inhibition of HIV-1 BaL in PBMC, extracellular p24 ELISA
[2] = system: HIV-GFP-VSV-G reporter virus; assay: microbe, parasite or virus in culture; assay type: cell-based, HIV-1
PBMC = assay: Viability assay of PBMC, flow cytometry with viability dye; assay type: cell-based, Human; conditions: PBMCs
Experimental: (§1) PBMCs were thawed and let in the culture in RPMI with 10% fetal bovine serum (FBS) (Gibco, Grand Island, NY, USA) for 24 h before each experiment. Cells were stimulated for 48 h with 8 μg/mL of Phytohemagglutinin-PHA (Sigma-Aldrich, St. Louis, MO, USA) and 50 UI/mL of IL-2 (Peprotech, Rocky Hill, CT, USA). In the presence of various concentrations of di-halogenated compounds derived from L-Tyrosine, 2 × 10^5 cells per well were treated and resuspended in 200 µL of fresh medium with 20 UI/mL of IL-2 and incubated in 96-well culture plates for 7 days. After 7 days post-treatment, cell viability was determined using flow cytometry. Briefly, cells were stained with fixable viability dye eFluor 506 (eBioscience, Leicestershire, UK) as detailed in the manufacturer’s protocol for 30 min in the dark. Later, cells were washed and resuspended in PBS, and the percentage of viable cells was measured instead in the LS Fortessa cytometer (BD Biosciences, Franklin Lakes, NJ, USA). Data were analyzed using FlowJo version 10.5.3 (FlowJo, LLC, Ashland, OR, USA).

HIV-1 BaL [3] = assay: Anti-HIV activity in PBMC, intracellular p24 by flow cytometry; assay type: cell-based
Experimental: In the presence of various concentrations of the most bioactive compounds, 1×10^6 PBMCs previously stimulated with 8 μg/mL of PHA and 50UI/mL of IL-2 were treated for 1 h. […] After spinoculation, cells were washed twice with PBS 1x to remove free virions, and then, fresh medium supplemented with 20 UI/mL of IL-2, with or without the di-halogenated compounds derived from L-Tyrosine dilutions, was added. Cells were plated in 96-well culture plates and incubated for 7 days. […] In addition, antiviral activity was also assessed by measuring intracellular p24 in harvested cells. Briefly, cells were stained with fixable viability dye eFluor 506 (eBioscience, Leicestershire, UK), CD3 (UCHT1; Thermo Scientific, Wilmington, DE, USA), CD4 (RPA-T4; BD Biosciences, San Jose, CA, USA), and p24 PE (KC57; Beckman Coulter, Pasadena, CA, USA), as detailed in the manufacturer’s protocol. Later, cells were washed and resuspended in PBS, and the lecture was measured instead in the LS Fortessa cytometer (BD Biosciences, Franklin Lakes, NJ, USA). Data were analyzed using FlowJo version 10.5.3 (FlowJo, LLC, Ashland, OR, USA).

TZM-bl cells = assay: MTT cytotoxicity assay; assay type: cell-based
Experimental: (§2) The in vitro cytotoxic effect of the di-halogenated compounds on TZM-bl cells was determined with the MTT (3-(4,5-Dimethylthiazol-2-yl)-2,5-diphenyltetrazolium bromide) assay (Sigma-Aldrich, St. Louis, MO, USA). For this purpose, 1.2 × 10^5 cells/well were seeded in 96-well plates, which were incubated at 37 °C and 5% CO2 for 24 h. DMEM was used as a negative control and serial two-fold dilutions of the compounds were performed at 9.37 to 300 μM in DMEM supplemented with 5% FBS. A total of 100 μL/well of each dilution was added and incubated for 48 h. Subsequently, the cells were washed 2 times with 1X PBS, and 30 μL of MTT solution (2 mg/mL) was added and incubated for 2 h at 37 °C, in a light-protected culture. Then, 100 µL of DMSO was added to dissolve the formazan crystals, placed in shaking for 15 min, and absorbance reading was performed at 570 nm, using the Microplate Spectrophotometer (Thermo Scientific™ Multiskan™ GO, Waltham, MA, USA). Two independent experiments evaluated each experimental condition in quadruplicate (n = 8). The percentage of viability was calculated concerning the absorbance of the controls without a compound (100% viability). The 50% cytotoxic concentration was defined as the concentration of each compound that can reduce cell viability to 50% of the untreated cell control. CC50 was calculated and analyzed with GraphPad Prism version 8.0.1 (GraphPad Software, Inc., San Diego, CA, USA).

HIV-1IIIB (X4) = assay: Anti-HIV activity in infected TZM-bl cells (luciferase), pre- and post-infection treatment; assay type: cell-based, Human Immunodeficiency Virus Type 1 (HIV-1); conditions: for inhibition at 18 µM / inhibition at 37 µM / inhibition at 75 µM / inhibition at 150 µM / pIC50: TZM-bl cells; for inhibition at 18 µM / inhibition at 37 µM / inhibition at 75 µM / inhibition at 150 µM: read-out: Percentage inhibition of HIV-1IIIB (X4 strain) replication; for pIC50: Human immunodeficiency virus 1, HIV-1IIIB (X4), luciferase, 48 h; for SI: selectivity index against HIV-1IIIB (CC50 and IC50 of Table 4)
Experimental: (§3) TZM-bl cells were plated in a flat-bottom 96-well plate (Corning Inc., Corning, New York, NY, USA) at the concentration of 1.2 × 10^5 cells/well and incubated for 24 h at 37 °C before the addition or not of each compound at non-cytotoxic concentrations (pre-infection treatment). Then, 1 h later the treatment was removed, and the infection was performed by adding 10 ng/mL of HIV-1IIIB p24 (X4) or 2 ng/mL of HIV-1 BaL (R5). After 3 h, the virus was removed and washed, and the compound dilutions were added again (post-infection treatment). Additionally, three wells were left for the negative control (cells without treatment or infection), the positive control of infection (cells infected with the virus without treatment), and the positive control of inhibition (AZT). Antiviral activity was quantified 48 h after treatment by measuring luciferase activity, which is directly proportional to the number of infectious virus particles in the sample [23]. The luciferase activity was quantified via luminescence emitted by the cells using Bright-GloTM Luciferase Assay System (Promega Corp., Madison, WI, USA), following the manufacturer’s instructions. Briefly, 100 μL of the reagent was added to 100 μL of TZM-bl cells and incubated for at least 2 min, protected from light. Relative light units (RLUs) were measured using the multi-mode plate reader (Thermo ScientificTM VarioskanTM LUX). Each experimental condition was performed in triplicate in two independent experiments (n = 6). The percentage inhibition was calculated as follows: 100 − (RLU of treated cells − RLU of uninfected cells/RLU of infection control − RLU of uninfected cells) × 100.

HIV-1 BaL (R5) = assay: as above; assay type: cell-based, Human Immunodeficiency Virus Type 1 (HIV-1); conditions: for pIC50: 48 h, HIV-1 BaL (R5), luciferase; for SI: selectivity index against HIV-1 BaL (CC50 and IC50 of Table 3)
Experimental: as §3

[4] = Viability assay of PBMC, flow cytometry with viability dye; assay type: cell-based, Human; conditions: human, PBMC stimulated with PHA and IL-2; all concentrations tested (18.75 μM up to 150 μM), 7 days; read-out: viability level on PBMCs
Experimental: as §1

MTT cytotoxicity assay = assay type: cell-based; conditions: human; TZM-bl cells, MTT, 48 h
Experimental: as §2

[5] = Human immunodeficiency virus 1, TZM-bl, read-out: percentage inhibition of HIV-GFP-VSV-G replication
[6] = Human immunodeficiency virus 1, TZM-bl
[7] = Human immunodeficiency virus 1, BAL, TZM-bl, TZM-bl cells
[8] = Human immunodeficiency virus 1, BAL, TZM-bl cells, read-out: Percentage inhibition of HIV-1 BaL replication

SMILES | inhibition at 150 µM [2, 5] | viability at 7 days [4] | CC50 at 48 h (MTT cytotoxicity assay) | inhibition at 18 µM (HIV-1IIIB (X4); [6]) | inhibition at 37 µM (HIV-1IIIB (X4); [6]) | inhibition at 75 µM (HIV-1IIIB (X4); [6]) | inhibition at 150 µM (HIV-1IIIB (X4); [6]) | pIC50 (HIV-1IIIB (X4)) | SI (HIV-1IIIB (X4)) | pIC50 (HIV-1 BaL (R5); [7]) | inhibition at 18 µM (HIV-1 BaL (R5); [8]) | inhibition at 37 µM (HIV-1 BaL (R5); [8]) | inhibition at 75 µM (HIV-1 BaL (R5); [8]) | inhibition at 150 µM (HIV-1 BaL (R5); [8]) | SI (HIV-1 BaL (R5)) | other results
Cc1cn([C@H]2C[C@H](N=[N+]=[N-])[C@@H](CO)O2)c(=O)[nH]c1=O [AZT, Zidovudine, reference compound] | – | – | – | – | – | – | – | – | – | – | – | – | – | – | – | inhibition at 10 µM (HIV-1 BaL [1]): > 90%; inhibition at 10 µM [2, 5]: 93.2%; toxicity in words (PBMC): Neither the viral inhibition control (AZT) nor the solvent (DMSO) proved toxic; inhibition at 10 µM (HIV-1 BaL [3]; Human immunodeficiency virus 1, BAL, PBMC, AZT (10 µM), positive control, read-out: inhibition of HIV-1 BaL replication in PBMC, flow cytometry (intracellular p24)): 99.4%; toxicity in words (TZM-bl cells): Neither the viral inhibition control (AZT) nor the solvent (DMSO) was toxic; inhibition at 10 µM (HIV-1IIIB (X4); Human immunodeficiency virus 1, TZM-bl, read-out: inhibition of virus infections (HIV-1IIIB)): > 90%; inhibition at 10 µM (HIV-1 BaL (R5); Human immunodeficiency virus 1, BAL, TZM-bl, read-out: inhibition of viral infection (HIV-1 BaL)): > 90%
COc1c(Br)cc(C[C@@H](C(=O)O)N(C)C)cc1Br [TODB-2M] | 44.2% | > 90% | 165 µM | 22.2% | -4% | 9.9% | 95.9% | ~4.08 | ~1.99 | 3.95 | 36.3% | 34.1% | 37.7% | 45.8% | 1.45 | SI [2]: 1.16; pIC50 ([2]; Human immunodeficiency virus 1, TZM-bl, 48 h): 3.85; inhibition at 75 µM (HIV-1 BaL [3]; Human immunodeficiency virus 1, BAL, PBMC, 168 h, 75 μM, 7 days, read-out: inhibition of HIV-1 BaL replication in PBMC, flow cytometry (intracellular p24)): 56.5%; inhibition at 150 µM (HIV-1 BaL [3]; Human immunodeficiency virus 1, BAL, PBMC, 168 h, 150 µM, 7 days, read-out: inhibition of HIV-1 BaL replication in PBMC, flow cytometry (intracellular p24)): > 60%; inhibition of HIV-1 BaL replication in PBMC, flow cytometry (intracellular p24) (HIV-1 BaL [3]; all concentrations, 7 days): over 50%
COc1c(Cl)cc(C[C@@H](C(=O)O)[N+](C)(C)C)cc1Cl [TODC-3M] | – | > 90% | 74.9 µM | -1.3% | -6.9% | 26.7% | 14.9% | – | – | – | – | 54.9% | 37.6% | 46.7% | – | percentage inhibition of HIV-GFP-VSV-G replication [2]: 19.5%; inhibition at 300 µM (HIV-1 BaL (R5); Human immunodeficiency virus 1, BAL, 300 µM, TZM-bl cells, read-out: Percentage inhibition of HIV-1 BaL replication): 59.9%
C[N+](C)(C)CCc1cc(Br)c(O)c(Br)c1 [YDB-3M] | – | – | ~101 µM | 39.2% | 1.8% | -19.4% | – | – | ~32.65 | – | 7.2% | -10.2% | – | – | – | cytotoxicity level (TZM-bl cells; 150 μM, 48 h): higher level of cytotoxicity; anti-HIV activity against R5 strain in words (HIV-1 BaL (R5); HIV-1 BaL, TZM-bl cells): had no activity; also recorded: did not show significant anti-HIV activity
C[N+](C)(C)CCc1cc(Cl)c(O)c(Cl)c1 [YDC-3M] | 12.5% | > 90% | 39.9 µM | 41% | -25.7% | 31.2% | 29.9% | 4.65 | – | 4.43 | 50.2% | 42.3% | 33.4% | 27.5% | 1.07 | pIC50 (HIV-1 BaL (R5); TZM-bl cells): 4.42
